Data on ten compounds can be found in US20260374766A1, “METHODS FOR TREATING CANCER” (Antares Therapeutics, Inc., priority 2022, published 2026).

Structures are written as SMILES. Read-outs that look alike come from different tables or passages of the source.

In one test the test system is NUGC3 p53 Y220C. Put plainly: Cell Proliferation Assay (CellTiter-Glo, CTG), NUGC3 p53 Y220C. Type of test: cell-based. As to conditions: Homo sapiens, NUGC-3, 120 h, NUGC3 cells, 5 days. How it is done: (§1) Inducible p53 Y220C and R273H constructs (Tet-One inducible expression system; Takara) were stably expressed in NClH1299 cells by lentiviral transduction. NUGC3, A549, BxPC3, T3M4, HuH7, HCC2935, MFE296, NClH1299, NClH1299-inducible p53 Y220C, and NClH1299-inducible p53 R273H cell lines were used for cell proliferation assay. 250-500 cells were seeded in each well of 384 plate and then compounds were dispensed into each well using Echo or Tecan. After 5 days of incubation, equal volume of CellTiter-Glo reagent (G7570; Promega) was added into each well and the plate was incubated at room temperature for 10 minutes with shaking. The luminescent signal was measured by PheraStar microplate reader and IC50 was calculated.

The subject of a further test is H1299 p53 R273H. Kind of test: Cell Proliferation Assay (CellTiter-Glo, CTG), H1299 p53 R273H (NClH1299-inducible p53 R273H). Type of test: cell-based. To be noted: Homo sapiens, NCI-H1299, 120 h, NClH1299-inducible p53 R273H cells, 5 days. How it is done: as §1
A general note: In ATP-based viability assays light output follows the ATP content of the culture.

The subject of the next test is H1299 p53 Y220C. Put plainly: Cell Proliferation Assay (CellTiter-Glo, CTG), H1299 p53 Y220C (NClH1299-inducible p53 Y220C). The class given is cell-based. To be noted: Homo sapiens, NCI-H1299, 120 h, NClH1299-inducible p53 Y220C cells, 5 days. On the procedure: as §1
A further test deals with p53 Y220C (Homo sapiens, UniProt P04637, Y220C). Kind of test: Luciferase Reporter Assay (Luc), p53 response element, NClH1299 cells with inducible p53 Y220C. To be noted: 6 hour; for AC50: read-out: Luc P53 Y220C AC50. The class given is cell-based. On the procedure:
Luciferase Reporter Assay Protocol
The cells were then used for p53 reporter assay. 5,000 cells were seeded in each well of 384 plate and cultured in 0.5 ug/mL doxycycline (D3072; Sigma) containing medium for 24 hours before compound treatment. After 6 hour of compound treatment, equal volume of One-Glo reagent (E6110; Promega) was added to each well and the plate was incubated for 5 minutes with shaking at room temperature. The luciferase activity was immediately measured with PheraStar microplate reader.

Test [1] addresses T1, p53 Y220C mutant protein (amino acid residues 94-293) (Homo sapiens, UniProt P04637, Y220C).
T1 construct: p53 Y220C mutant protein (amino acid residues 94-293)
Put plainly: Surface Plasmon Resonance (SPR) assay, Kd_kinetic. Type of test: binding. To be noted: SPR; p53 Y220C; read-out: SPR P53 Y220C KD kinetic. How it is done: Surface Plasmon Resonance (SPR) Assay Protocol
SPR experiments were performed on a Biacore 8K instrument. […] The running buffer contained 50 mM Tris, pH 7.5, 100 mM NaCl, 1 mM DTT, 0.01% Brij35, 0.05% Tween-20 and 1% DMSO. The assay temperature was maintained at 16 or 20 °C and data were fit into the 1:1 binding model using the Biacore Insight Evaluation software.

Setting [2] is: luciferase reporter, NClH1299 inducible p53 Y220C.
Setting [3] is: NClH1299 cells with inducible p53 Y220C.

T1 sequence (P04637 94-293, stated change not applied): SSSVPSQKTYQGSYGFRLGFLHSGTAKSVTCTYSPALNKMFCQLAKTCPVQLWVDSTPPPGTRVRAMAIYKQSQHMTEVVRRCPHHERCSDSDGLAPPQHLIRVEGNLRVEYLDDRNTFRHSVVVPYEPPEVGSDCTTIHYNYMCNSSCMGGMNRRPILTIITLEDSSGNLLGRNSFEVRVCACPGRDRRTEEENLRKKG

One may read the IC50 as the midpoint of a concentration-inhibition curve. The low end stands for inhibition by little substance, the high end for a need for much substance. Consider `CNC(=O)c1ccc(NCC#Cc2nc3c(N[C@H]4C[C@H]5COC[C@H](N5)[C@H]4F)cccn3c2SC(F)(F)F)c(OC)c1` [Example 282], for which the IC50 with NUGC3 p53 Y220C (CellTiter-Glo) was below 750 nM; with H1299 p53 R273H (CellTiter-Glo), at least 10000 nM.
The term AC50 denotes the concentration at which the activity in the assay is half-maximal. For orientation: Emax means the size of the effect at its maximum, as opposed to the concentration needed. As to `CNS(=O)(=O)c1ccc(NCC#Cc2cc3c(N[C@@H]4CCN(C)C[C@@H]4F)cccn3c2SC(F)(F)F)c(OC)c1` [Example 360], the IC50 in the test with H1299 p53 Y220C (CellTiter-Glo) was above 3000 nM; in the test with NUGC3 p53 Y220C (CellTiter-Glo), above 3000 nM; with H1299 p53 R273H (CellTiter-Glo) it was 5000 to 8000 nM. The AC50 at p53 Y220C (setting [2]) was above 3000 nM. Further, the Emax at p53 Y220C (setting [2]) is below 70%.
In the case of `COc1cc(S(N)(=O)=O)ccc1NCC#Cc1cc2c(N[C@@H]3CCN(C)C[C@@H]3F)cccn2c1SC(F)(F)F` [Example 362], the IC50 with H1299 p53 Y220C (CellTiter-Glo) is above 3000 nM; in the test with NUGC3 p53 Y220C (CellTiter-Glo), above 3000 nM; in the test with H1299 p53 R273H (CellTiter-Glo), 8000 to 10000 nM. Moreover, the AC50 at p53 Y220C (setting [2]) is above 3000 nM. Also, the maximal effect (Emax) at p53 Y220C (setting [2]) lay within 70 to 80%.
For `CNC(=O)c1ccc(NCC#Cc2nn3c(N[C@@H]4CCN(C)C[C@@H]4F)cccc3c2SC(F)F)c(OC)c1` [Example 366], the IC50 in the test with H1299 p53 Y220C (CellTiter-Glo) is below 750 nM; in the test on NUGC3 p53 Y220C (CellTiter-Glo), below 750 nM; in the test on H1299 p53 R273H (CellTiter-Glo), at least 10000 nM. At p53 Y220C (setting [2]), the Emax was 70 to 80%.
As to `CNC(=O)c1ccc(OC)c(NCC#Cc2cc3c(N[C@@H]4CCN(C[C@@H](C)O)C[C@@H]4F)nccn3c2SC(F)(F)F)c1` [Example 401], the values for the IC50 with H1299 p53 Y220C (CellTiter-Glo), in the test with NUGC3 p53 Y220C (CellTiter-Glo) and in the test on H1299 p53 R273H (CellTiter-Glo) were below 750 nM, below 750 nM and 8000 to 10000 nM, respectively. In addition, the AC50 at p53 Y220C (setting [2]) was below 750 nM. This compound also showed an Emax at p53 Y220C (setting [2]) above 90%.
As to `COc1ccc(C(=O)NC[C@H](O)CO)cc1NCC#Cc1cc2c(N[C@@H]3CCN(C)C[C@@H]3F)cccn2c1SC(F)(F)F` [Example 425], the IC50 in the test on H1299 p53 Y220C (CellTiter-Glo) is below 750 nM; in the test with NUGC3 p53 Y220C (CellTiter-Glo) it was below 750 nM; with H1299 p53 R273H (CellTiter-Glo) it was at least 10000 nM. The AC50 at p53 Y220C (setting [2]) was below 750 nM. Also, the Emax at p53 Y220C (setting [2]) was above 90%.
Take `COc1cc(P(C)(C)=O)ncc1NCC#Cc1cc2c(N[C@@H]3CCN(C)C[C@@H]3F)cccn2c1SC(F)(F)F` [Example 439, 2-(3-{[6-(dimethylphosphoryl)-4-methoxypyridin-3-yl]amino}prop-1-yn-1-yl)-N-[(3S,4R)-3-fluoro-1-methylpiperidin-4-yl]-3-[(trifluoromethyl)sulfanyl]indolizin-8-amine]: the figures for the half-inhibitory concentration (IC50) in the test on H1299 p53 Y220C (CellTiter-Glo), in the test with NUGC3 p53 Y220C (CellTiter-Glo) and in the test on H1299 p53 R273H (CellTiter-Glo) were below 750 nM, below 750 nM and at least 10000 nM, respectively. Also, the AC50 on p53 Y220C (setting [2]) was below 750 nM. The compound also showed an Emax at p53 Y220C (setting [2]) above 90%.
As to `CN1CC[C@@H](Nc2cccn3c(SC(F)(F)F)c(C#CCNc4cc(C(=O)NCC(C)(C)O)ccc4OC4COC4)cc23)[C@@H](F)C1` [Example 459, 3-{[3-(8-{[(3S,4R)-3-fluoro-1-methylpiperidin-4-yl]amino}-3-[(trifluoromethyl)sulfanyl]indolizin-2-yl)prop-2-yn-1-yl]amino}-N-(2-hydroxy-2-methylpropyl)-4-(oxetan-3-yloxy)benzamide], the values for the IC50 with H1299 p53 Y220C, with NUGC3 p53 Y220C and in the test on H1299 p53 R273H were below 750 nM, below 750 nM and at least 10000 nM, respectively. Moreover, the AC50 at p53 Y220C (setting [3]) is below 750 nM. The maximal response (Emax) at p53 Y220C (NClH1299 cells with inducible p53 Y220C, 10 uM tool compound as positive control) was above 90%.
As a reminder, the Kd is the concentration at which binding is half-saturated. Take `CNC(=O)c1ccc(OC)c(NCC#Cc2cc3c(N[C@@H]4CCN(C)C[C@@H]4F)cccn3c2CC(F)(F)F)c1` [Example 509]: the IC50 in the test on H1299 p53 Y220C and in the test on NUGC3 p53 Y220C was below 750 nM each time. Also, the AC50 on p53 Y220C (setting [3]) was below 750 nM. Moreover, the Kd in test [1] is below 10 nM.
Turning to `CNC(=O)c1ccc(NCC#Cc2cc3c(N[C@@H]4CCN(C)C[C@@H]4F)cccn3c2CC(F)(F)F)c(OC)c1` [Example 510], the 50% inhibitory concentration (IC50) with H1299 p53 Y220C and with NUGC3 p53 Y220C was below 750 nM throughout. Also, the half-maximal activity concentration (AC50) on p53 Y220C (setting [3]) is below 750 nM. The dissociation constant (Kd) in test [1] is below 10 nM.
